By IC50 is commonly meant the concentration that gives 50% inhibition. By half-life is commonly meant how long it takes for the measured level to halve. A higher half-life goes with slow loss. What is called EC50 is the midpoint of the concentration-response curve.

The text below walks through data of ChEMBL document CHEMBL5038633 (J Med Chem, 2022).

Where a SMILES comes first, the peptide text is derived from it. Bridges are numbered along the chain shown (N, C = ends).

The target in data set [1] is Voltage-gated inwardly rectifying potassium channel KCNH2 (Homo sapiens, UniProt Q12809). The data set is described as follows: Inhibition of human ERG by PatchXpress assay. It counts as toxicity.
Data set [2] deals with Rattus norvegicus. In words: Antinociceptive activity against Sprague-Dawley rat model of thermal stimuli induced nociception assessed as increase in tail withdrawal latency administered subcutaneously as single dose measured up to 300 mins by tail flick test. Format: functional, organism-based. Conditions: dose 1-2 mg/kg, time min <=300.
For data set [3], the target named is Sodium channel protein type 9 subunit alpha (Rattus norvegicus, UniProt O08562). The data set is described as follows: Inhibition of rat Nav1.7 stably expressed in cells with train pulses to -20 mV at 0.1 Hz and holding potential of -90 mV by whole-cell QPatch HT assay. It counts as cell-based. A general note: Patch clamp records ionic current or voltage across a cell membrane.

A short description of data set [4]: Inhibition of mast cell degranulation in Wistar Han rat peritoneal lavage mast cells assessed as inhibition histamine release by measuring lowest concentration at which histamine release observed measured after 30 mins. It counts as functional. Conditions: 0.5 h.
Data set [5] addresses Sodium channel protein type 8 subunit alpha (Homo sapiens, UniProt Q9UQD0). The data set is described as follows: Inhibition of human Nav1.6 stably expressed in cells with train pulses to -20 mV at 0.1 Hz and holding potential of -85 mV by whole-cell Qube-automated patch clamp assay. It counts as cell-based.
Data set [6] concerns the target Sodium channel protein type 4 subunit alpha (Homo sapiens, UniProt P35499). In words: Inhibition of human Nav1.4 stably expressed in cells with train pulses to -20 mV at 0.1 Hz and holding potential of -95 mV by whole-cell Qube-automated patch clamp assay. Format: cell-based.
Data set [7] has as its target Sodium channel protein type 5 subunit alpha (Homo sapiens, UniProt Q14524). In words: Inhibition of human Nav1.5 by PatchXpress assay. It counts as toxicity.
For data set [8], the target named is Sodium channel protein type 2 subunit alpha (Homo sapiens, UniProt Q99250). The data set is described as follows: Inhibition of human Nav1.2 stably expressed in cells with train pulses to -20 mV at 0.1 Hz and holding potential of -95 mV by Qube-automated patch clamp assay. It counts as cell-based.
Data set [9] concerns the target Voltage-dependent L-type calcium channel subunit alpha-1C (Homo sapiens, UniProt Q13936). The data set is described as follows: Inhibition of human Cav1.2 stably expressed in HEK293 cells incubated for 30 mins in dark by Fluo-4 AM dye based FLIPR assay. Format: cell-based.
Data set [10] in a line: Ratio of IC50 for inhibition of rat Nav1.7 stably expressed in cells to EC50 for antinociceptive activity against Sprague-Dawley rat model of thermal stimuli induced nociception assessed as concentration required for maximal tail flick withdrawal latency. It counts as functional.
Data set [11] in a line: Half life in Wistar Han rat at 0.3 mg/kg, iv measured upto 24 hrs by LC/MS/MS analysis. Format: ADME, organism-based. Conditions: in vivo.
The subject of data set [12] is Rattus norvegicus. The data set is described as follows: Antinociceptive activity against Sprague-Dawley rat model of thermal stimuli induced nociception assessed as concentration required for maximal tail flick withdrawal latency administered subcutaneously as single dose measured up to 300 mins by tail flick test. It counts as functional, organism-based. To be noted: 5 h.

Data set [13] deals with Rattus norvegicus. The data set is described as follows: Antinociceptive activity against Sprague-Dawley rat model of thermal stimuli induced nociception assessed as concentration required for maximal tail flick withdrawal latency administered subcutaneously as single dose measured up to 24 hrs by tail flick test. Format: functional, organism-based. (In general: In hot-plate and tail-flick tests a longer latency is read as antinociception.)

Data set [14] has as its system Rattus norvegicus. In words: Antinociceptive activity against Sprague-Dawley rat model of thermal stimuli induced nociception assessed as increase in tail withdrawal latency administered subcutaneously as single dose measured up to 24 hrs by tail flick test. It counts as functional, organism-based. Conditions: time hrs <=24.
In data set [15] the target is T1, Sodium channel protein type 9 subunit alpha (Homo sapiens, UniProt Q15858). In words: Inhibition of human Nav1.7 stably expressed in cells with train pulses to -20 mV at 0.1 Hz and holding potential of -95 mV by Qube-automated patch clamp assay. Format: cell-based.
The next data set deals with Mast cell. In words: Effect on mast cell degranulation in Wistar Han rat peritoneal lavage mast cells assessed as fold increase in histamine level by measuring histamine Cmax in plasma at 0.3 mg/kg, iv administered as bolus dose measured up to 24 hrs by LC/MS/MS analysis relative to control. Format: functional. Conditions: time hrs <=24.
Data set [16] concerns the target T1, Sodium channel protein type 9 subunit alpha. The data set is described as follows: Inhibition of human Nav1.7 stably expressed in cells with train pulses to -20 mV at 0.1 Hz and holding potential of -95 mV by whole-cell QPatch HT assay. It counts as cell-based.

Sequence of Voltage-dependent L-type calcium channel subunit alpha-1C (Q13936 whole entry): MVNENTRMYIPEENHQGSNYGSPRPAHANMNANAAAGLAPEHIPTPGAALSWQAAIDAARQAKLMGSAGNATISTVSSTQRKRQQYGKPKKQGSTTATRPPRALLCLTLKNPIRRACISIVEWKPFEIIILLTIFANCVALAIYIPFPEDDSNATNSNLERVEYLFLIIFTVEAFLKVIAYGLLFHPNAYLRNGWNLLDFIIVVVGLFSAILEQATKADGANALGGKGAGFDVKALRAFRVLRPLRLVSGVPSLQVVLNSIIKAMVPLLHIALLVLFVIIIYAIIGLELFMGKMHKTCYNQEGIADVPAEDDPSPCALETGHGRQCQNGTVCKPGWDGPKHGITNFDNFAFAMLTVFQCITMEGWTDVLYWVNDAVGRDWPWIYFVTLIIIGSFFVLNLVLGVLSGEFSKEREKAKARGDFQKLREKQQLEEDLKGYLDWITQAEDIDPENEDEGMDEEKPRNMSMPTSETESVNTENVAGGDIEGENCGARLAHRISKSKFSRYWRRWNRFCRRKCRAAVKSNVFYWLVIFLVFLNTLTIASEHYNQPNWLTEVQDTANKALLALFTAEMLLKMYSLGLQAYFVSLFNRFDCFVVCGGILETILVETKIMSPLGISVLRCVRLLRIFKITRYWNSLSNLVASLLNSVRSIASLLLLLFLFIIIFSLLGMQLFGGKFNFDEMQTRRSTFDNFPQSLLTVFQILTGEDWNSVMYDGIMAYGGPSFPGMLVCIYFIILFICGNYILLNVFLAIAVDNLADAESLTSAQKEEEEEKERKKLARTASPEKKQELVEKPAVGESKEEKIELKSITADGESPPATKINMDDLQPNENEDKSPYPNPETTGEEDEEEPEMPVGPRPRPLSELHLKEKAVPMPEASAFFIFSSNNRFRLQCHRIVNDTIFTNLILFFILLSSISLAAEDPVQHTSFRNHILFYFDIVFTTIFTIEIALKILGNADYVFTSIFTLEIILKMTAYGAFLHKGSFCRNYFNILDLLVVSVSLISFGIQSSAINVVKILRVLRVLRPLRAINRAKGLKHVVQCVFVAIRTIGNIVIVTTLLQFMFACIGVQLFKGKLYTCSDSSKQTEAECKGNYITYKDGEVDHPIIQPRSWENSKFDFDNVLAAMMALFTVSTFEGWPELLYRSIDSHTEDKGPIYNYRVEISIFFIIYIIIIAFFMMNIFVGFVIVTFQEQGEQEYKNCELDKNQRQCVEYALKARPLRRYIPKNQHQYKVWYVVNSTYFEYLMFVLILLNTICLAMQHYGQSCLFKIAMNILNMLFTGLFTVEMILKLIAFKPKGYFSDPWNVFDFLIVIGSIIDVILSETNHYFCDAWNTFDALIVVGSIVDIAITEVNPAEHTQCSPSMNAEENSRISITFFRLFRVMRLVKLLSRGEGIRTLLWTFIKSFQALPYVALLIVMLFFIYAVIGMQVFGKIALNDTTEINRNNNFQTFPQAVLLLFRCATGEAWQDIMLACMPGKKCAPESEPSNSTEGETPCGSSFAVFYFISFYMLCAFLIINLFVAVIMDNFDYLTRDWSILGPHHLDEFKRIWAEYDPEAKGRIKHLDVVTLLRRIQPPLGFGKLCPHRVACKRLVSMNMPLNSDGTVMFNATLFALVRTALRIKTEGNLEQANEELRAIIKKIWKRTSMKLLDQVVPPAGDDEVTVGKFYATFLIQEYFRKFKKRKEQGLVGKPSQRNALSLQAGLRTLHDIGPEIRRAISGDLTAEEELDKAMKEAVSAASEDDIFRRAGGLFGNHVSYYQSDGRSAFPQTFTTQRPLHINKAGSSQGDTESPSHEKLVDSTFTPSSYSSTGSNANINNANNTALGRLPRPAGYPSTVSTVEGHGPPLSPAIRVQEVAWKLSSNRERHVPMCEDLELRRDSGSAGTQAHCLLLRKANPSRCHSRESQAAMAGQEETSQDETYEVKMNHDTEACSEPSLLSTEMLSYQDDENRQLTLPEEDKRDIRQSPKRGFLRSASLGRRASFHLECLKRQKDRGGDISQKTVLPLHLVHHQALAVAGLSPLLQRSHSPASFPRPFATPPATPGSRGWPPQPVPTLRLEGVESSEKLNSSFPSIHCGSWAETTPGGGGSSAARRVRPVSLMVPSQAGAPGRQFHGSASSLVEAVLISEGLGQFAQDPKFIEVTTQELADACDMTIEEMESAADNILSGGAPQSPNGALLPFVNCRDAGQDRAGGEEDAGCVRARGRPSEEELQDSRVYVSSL
Sequence of Sodium channel protein type 8 subunit alpha (Q9UQD0 whole entry): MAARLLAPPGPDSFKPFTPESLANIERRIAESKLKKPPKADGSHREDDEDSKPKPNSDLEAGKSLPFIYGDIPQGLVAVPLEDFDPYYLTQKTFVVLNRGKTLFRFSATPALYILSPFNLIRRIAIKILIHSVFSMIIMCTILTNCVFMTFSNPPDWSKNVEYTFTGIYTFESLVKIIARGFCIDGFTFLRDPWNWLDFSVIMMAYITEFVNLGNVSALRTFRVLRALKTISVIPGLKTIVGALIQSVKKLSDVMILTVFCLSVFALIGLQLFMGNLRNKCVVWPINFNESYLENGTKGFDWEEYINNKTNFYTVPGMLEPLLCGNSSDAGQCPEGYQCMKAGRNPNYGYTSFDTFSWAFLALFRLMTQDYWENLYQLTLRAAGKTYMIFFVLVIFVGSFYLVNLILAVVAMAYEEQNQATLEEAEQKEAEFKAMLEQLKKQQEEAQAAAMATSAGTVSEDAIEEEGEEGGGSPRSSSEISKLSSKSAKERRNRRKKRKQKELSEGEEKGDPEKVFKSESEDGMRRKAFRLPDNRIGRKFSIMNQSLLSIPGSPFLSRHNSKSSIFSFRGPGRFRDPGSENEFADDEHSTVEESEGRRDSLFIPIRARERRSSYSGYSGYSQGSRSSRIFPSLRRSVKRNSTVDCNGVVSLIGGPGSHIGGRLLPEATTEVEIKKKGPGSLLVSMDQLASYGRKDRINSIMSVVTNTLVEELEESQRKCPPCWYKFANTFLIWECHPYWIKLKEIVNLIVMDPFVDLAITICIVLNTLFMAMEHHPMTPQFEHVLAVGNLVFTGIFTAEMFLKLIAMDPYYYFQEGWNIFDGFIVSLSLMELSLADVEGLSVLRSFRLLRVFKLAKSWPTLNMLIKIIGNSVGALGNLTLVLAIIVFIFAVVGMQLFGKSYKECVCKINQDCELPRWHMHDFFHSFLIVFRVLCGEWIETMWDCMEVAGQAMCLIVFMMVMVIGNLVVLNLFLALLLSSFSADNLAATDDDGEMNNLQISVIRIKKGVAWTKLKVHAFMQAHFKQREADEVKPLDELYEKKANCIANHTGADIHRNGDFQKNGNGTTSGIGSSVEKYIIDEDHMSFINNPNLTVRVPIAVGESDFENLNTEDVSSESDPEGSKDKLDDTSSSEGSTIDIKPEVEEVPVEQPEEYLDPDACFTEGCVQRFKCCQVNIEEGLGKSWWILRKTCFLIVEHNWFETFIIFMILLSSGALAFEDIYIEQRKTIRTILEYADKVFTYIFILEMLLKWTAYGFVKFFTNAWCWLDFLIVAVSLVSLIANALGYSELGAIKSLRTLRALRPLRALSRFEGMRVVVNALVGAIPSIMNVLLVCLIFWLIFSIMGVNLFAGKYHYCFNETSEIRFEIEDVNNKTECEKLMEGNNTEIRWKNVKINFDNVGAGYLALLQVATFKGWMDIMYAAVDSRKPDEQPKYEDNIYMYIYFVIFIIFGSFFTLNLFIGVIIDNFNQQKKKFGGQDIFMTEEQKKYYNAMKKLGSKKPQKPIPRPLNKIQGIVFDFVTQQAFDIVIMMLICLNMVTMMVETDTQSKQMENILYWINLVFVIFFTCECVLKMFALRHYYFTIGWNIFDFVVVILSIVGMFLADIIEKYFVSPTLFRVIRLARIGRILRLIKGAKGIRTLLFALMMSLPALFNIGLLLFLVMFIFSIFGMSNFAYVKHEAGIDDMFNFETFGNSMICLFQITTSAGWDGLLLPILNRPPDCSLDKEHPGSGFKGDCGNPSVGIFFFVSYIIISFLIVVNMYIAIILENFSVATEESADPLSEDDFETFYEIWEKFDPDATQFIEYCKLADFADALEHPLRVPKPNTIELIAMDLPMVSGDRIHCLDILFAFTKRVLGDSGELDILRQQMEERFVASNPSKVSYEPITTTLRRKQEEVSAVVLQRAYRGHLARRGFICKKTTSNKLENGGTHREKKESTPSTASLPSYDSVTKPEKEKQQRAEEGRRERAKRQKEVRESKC

With `CSCC[C@@H]1NC(=O)CNC(=O)[C@H](CCC(=O)O)NC(=O)[C@@H]2CSSC[C@H](NC(=O)[C@@H](N)Cc3ccc(O)cc3)C(=O)N[C@@H](CCC(N)=O)C(=O)N[C@@H](CCCCN)C(=O)N[C@@H](Cc3c[nH]c4ccccc34)C(=O)N[C@@H](CCSC)C(=O)N[C@@H](Cc3c[nH]c4ccccc34)C(=O)N[C@@H]([C@@H](C)O)C(=O)N[C@H]3CSSC[C@H](NC(=O)[C@H](C(C)C)NC1=O)C(=O)N[C@@H](CCCNC(=N)N)C(=O)N[C@@H](CC(C)C)C(=O)N[C@@H](Cc1c[nH]c4ccccc14)C(=O)N[C@H](C(=O)N[C@@H](CCCCN)C(=O)N[C@@H](CCCCN)C(=O)N[C@@H](CCCCN)C(=O)N[C@@H](CC(C)C)C(=O)N[C@@H](Cc1c[nH]c4ccccc14)C(N)=O)CSSC[C@H](NC(=O)[C@H](CCCCN)NC(=O)[C@H](CCCNC(=N)N)NC(=O)[C@H](CCC(=O)O)NC(=O)[C@H](CO)NC(=O)[C@H](CC(=O)O)NC3=O)C(=O)N2`, the IC50 amounted to 0.022 µM in data set [1]; 0.0013 µM in data set [3]; 0.075 µM in data set [5]; 0.093 µM in data set [6]; 0.18 µM in [7]; 1.5 µM in [8]. In [9], the 50% inhibitory concentration (IC50) worked out at 1.4 µM. Also, the Activity entry in the data set on Rattus norvegicus [2] was “Dose-Dependent Effect”. Further, the LED in data set [4] was found to be 0.37 µM. The “fold change (FC)” value in [10] is reported as 50. In data set [11], this compound gave a half-life below 3 h. The EC50 in the data set with Rattus norvegicus [12] came to 0.056 µM.
For the compound `CC(C)C[C@@H]1NC(=O)CNC(=O)[C@H](CCC(=O)O)NC(=O)[C@@H]2CSSC[C@H](NC(=O)[C@@H](N)Cc3ccc(O)cc3)C(=O)N[C@@H](CCC(N)=O)C(=O)N[C@@H](CCCCN)C(=O)N[C@@H](Cc3ccccc3)C(=O)N[C@@H](CC(C)C)C(=O)N[C@@H](C)C(=O)N3CCC[C@H]3C(=O)N[C@H]3CSSC[C@H](NC(=O)[C@H](C(C)C)NC1=O)C(=O)N[C@@H](CCCNC(=N)N)C(=O)N[C@@H](CC(C)C)C(=O)N[C@@H](Cc1c[nH]c4ccccc14)C(=O)N[C@H](C(=O)N[C@@H](CCCCN)C(=O)N[C@@H](CCCCN)C(=O)N[C@@H](CCCCN)C(=O)N[C@@H](CC(C)C)C(=O)N[C@@H](Cc1c[nH]c4ccccc14)C(N)=O)CSSC[C@H](NC(=O)[C@H](CCCCN)NC(=O)[C@H](CCCNC(=N)N)NC(=O)[C@H](CCC(=O)O)NC(=O)[C@H](CO)NC(=O)[C@H](CC(=O)O)NC3=O)C(=O)N2` (H-YCQKFLAPCDSERKCCEGLVCRLWCKKKLW-NH2; disulfide 2-16, 9-21, 15-25), the EC50 in the data set with Rattus norvegicus [13] turned out to be 0.294 µM. Besides, the IC50 is 0.78 µM in [1]; 0.0083 µM in [3]; 1.19 µM in [5]; 1.77 µM in data set [6]; 2.9 µM in data set [7]; above 17 µM in [8]. Further, the IC50 in [9] was above 30 µM; in [15], 0.032 µM; in [16] it was 0.0059 µM. In addition, in data set [4], the LED came to 3.3 µM. Besides, in the data set with Rattus norvegicus [14], the Activity result is “Dose-Dependent Effect”. For the same compound, the “fold change (FC)” value in data set [10] is listed as 50; in the data set with Mast cell, 12. Also, the half-life in data set [11] is below 3 h.
